# Data taken from US9963442B2, “Pyridones as herbicides” (E I DU PONT DE NEMOURS AND COMPANY, priority 2014, dated 2018).
# What was measured:
# Assay type in all cases: in vivo
# [1] = system: ragweed (common ragweed, Ambrosia elatior); assay: Test A postemergence application; settings: approx. 10 days
# From the text: (§1) Seeds of plant species selected from barnyardgrass (Echinochloa crus-galli), kochia (Kochia scoparia), ragweed (common ragweed, Ambrosia elatior), Italian ryegrass (Lolium multiflorum), giant foxtail (Setaria faberii), and pigweed (Amaranthus retroflexus) were planted into a blend of loam soil and sand and treated preemergence with a directed soil spray using test chemicals formulated in a non-phytotoxic solvent mixture which included a surfactant. At the same time, plants selected from these weed species and also wheat (Triticum aestivum), corn (Zea mays), blackgrass (Alopecurus myosuroides), and galium (catchweed bedstraw, Galium aparine) were planted in pots containing the same blend of loam soil and sand and treated with postemergence applications of test chemicals formulated in the same manner. Plants ranged in height from 2 to 10 cm and were in the one- to two-leaf stage for the postemergence treatment. Treated plants and untreated controls were maintained in a greenhouse for approximately 10 days, after which time all treated plants were compared to untreated controls and visually evaluated for injury. Plant response ratings, summarized in Table A, are based on a 0 to 100 scale where 0 is no effect and 100 is complete control. A dash (-) response means no test result.
# [2] = system: wheat (Triticum aestivum); assay: Test A postemergence application; settings: approx. 10 days
# From the text: as §1
# [3] = system: Italian ryegrass (Lolium multiflorum); assay: Test C preemergence; settings: scale 0 to 100, 0 is no effect, 100 is complete control
# From the text: (§2) Seeds of plant species selected from blackgrass (Alopecurus myosuroides), Italian ryegrass (Lolium multiflorum), winter wheat (Triticum aestivum), galium (catchweed bedstraw, Galium aparine), corn (Zea mays), large (Lg) crabgrass (Digitaria sanguinalis), giant foxtail (Setaria faberii), johnsongrass (Sorghum halepense), lambsquarters (Chenopodium album), morningglory (Ipomoea coccinea), yellow nutsedge (Cyperus esculentus), pigweed (Amaranthus retroflexus), ragweed (common ragweed, Ambrosia elatior), soybean (Glycine max), barnyardgrass (Echinochloa crus-galli), oilseed rape (Brassica napus), waterhemp (common waterhemp, Amaranthus rudis), and velvetleaf (Abutilon theophrasti) were planted into a blend of loam soil and sand and treated preemergence with test chemicals formulated in a non-phytotoxic solvent mixture which included a surfactant. At the same time, plants selected from these crop and weed species and also chickweed (common chickweed, Stellaria media), kochia (Kochia scoparia), and wild oat (Avena fatua), were planted in pots containing Sunshine Redi-Earth® planting medium comprising spaghnum peat moss, vermiculite, starter nutrients and dolomitic limestone and treated with postemergence applications of test chemicals formulated in the same manner. Plants ranged in height from 2 to 18 cm (1- to 4-leaf stage) for postemergence treatments. Treated plants and controls were maintained in a greenhouse for 13 to 15 days, after which time all species were compared to controls and visually evaluated. Plant response ratings, summarized in Table C, are based on a scale of 0 to 100 where 0 is no effect and 100 is complete control. A dash (-) response means no test result.
# [4] = system: barnyardgrass (Echinochloa crus-galli); assay: Test C preemergence; settings: scale 0 to 100, 0 is no effect, 100 is complete control
# From the text: as §2
# [5] = system: blackgrass (Alopecurus myosuroides); assay: Test C preemergence; settings: scale 0 to 100, 0 is no effect, 100 is complete control
# From the text: as §2
# corn (Zea mays) = assay: Test C preemergence; settings: scale 0 to 100, 0 is no effect, 100 is complete control
# From the text: as §2
# [6] = system: galium (catchweed bedstraw, Galium aparine); assay: Test C preemergence; settings: scale 0 to 100, 0 is no effect, 100 is complete control
# From the text: as §2
# [7] = system: giant foxtail (Setaria faberii); assay: Test C preemergence; settings: scale 0 to 100, 0 is no effect, 100 is complete control
# From the text: as §2
# [8] = system: johnsongrass (Sorghum halepense); assay: Test C preemergence; settings: scale 0 to 100, 0 is no effect, 100 is complete control
# From the text: as §2
# [9] = system: lambsquarters (Chenopodium album); assay: Test C preemergence; settings: scale 0 to 100, 0 is no effect, 100 is complete control
# From the text: as §2
# [10] = system: large (Lg) crabgrass (Digitaria sanguinalis); assay: Test C preemergence; settings: scale 0 to 100, 0 is no effect, 100 is complete control
# From the text: as §2
# [11] = system: morningglory (Ipomoea coccinea); assay: Test C preemergence; settings: scale 0 to 100, 0 is no effect, 100 is complete control
# From the text: as §2
# [12] = system: oilseed rape (Brassica napus); assay: Test C preemergence; settings: scale 0 to 100, 0 is no effect, 100 is complete control
# From the text: as §2
# [13] = system: pigweed (Amaranthus retroflexus); assay: Test C preemergence; settings: scale 0 to 100, 0 is no effect, 100 is complete control
# From the text: as §2
# [14] = system: ragweed (common ragweed, Ambrosia elatior); assay: Test C preemergence; settings: scale 0 to 100, 0 is no effect, 100 is complete control
# From the text: as §2
# soybean (Glycine max) = assay: Test C preemergence; settings: scale 0 to 100, 0 is no effect, 100 is complete control
# From the text: as §2
# [15] = system: velvetleaf (Abutilon theophrasti); assay: Test C preemergence; settings: scale 0 to 100, 0 is no effect, 100 is complete control
# From the text: as §2
# [16] = system: waterhemp (common waterhemp, Amaranthus rudis); assay: Test C preemergence; settings: scale 0 to 100, 0 is no effect, 100 is complete control
# From the text: as §2
# [17] = system: winter wheat (Triticum aestivum); assay: Test C preemergence; settings: scale 0 to 100, 0 is no effect, 100 is complete control
# From the text: as §2
# [18] = system: yellow nutsedge (Cyperus esculentus); assay: Test C preemergence; settings: scale 0 to 100, 0 is no effect, 100 is complete control
# From the text: as §2
compound,measurement,setting,value
"O=c1cccc(Oc2ncc(Cl)cn2)n1-c1ccc(Cl)cc1 [Compound 1, 1-(4-chlorophenyl)-6-[(5-chloro-2-pyrimidinyl)oxy]-2(1H)-pyridinone]","Plant response rating (0 to 100 scale, 0 no effect, 100 complete control), Ragweed",[1]; 125 g ai/ha,20
same,"Plant response rating (0 to 100 scale, 0 no effect, 100 complete control), Ragweed",[1]; 500 g ai/ha,20
same,"Plant response rating (0 to 100 scale, 0 no effect, 100 complete control), Wheat",[2]; 125 g ai/ha,30
same,"Plant response rating (0 to 100 scale, 0 no effect, 100 complete control), Wheat",[2]; 500 g ai/ha,40
same,"Plant response rating, Ryegrass, Italian",[3]; 16 g ai/ha,0
same,"Plant response rating, Ryegrass, Italian",[3]; 31 g ai/ha,0
same,"Plant response rating, Ryegrass, Italian",[3]; 62 g ai/ha,5
same,"Plant response rating, Ryegrass, Italian",[3]; 125 g ai/ha,60
same,"Plant response rating, Barnyardgrass",[4]; 16 g ai/ha,5
same,"Plant response rating, Barnyardgrass",[4]; 31 g ai/ha,20
same,"Plant response rating, Barnyardgrass",[4]; 62 g ai/ha,40
same,"Plant response rating, Barnyardgrass",[4]; 125 g ai/ha,75
same,"Plant response rating, Blackgrass",[5]; 16 g ai/ha,0
same,"Plant response rating, Blackgrass",[5]; 31 g ai/ha,20
same,"Plant response rating, Blackgrass",[5]; 62 g ai/ha,25
same,"Plant response rating, Blackgrass",[5]; 125 g ai/ha,85
same,"Plant response rating, Corn",corn (Zea mays); 16 g ai/ha,0
same,"Plant response rating, Corn",corn (Zea mays); 31 g ai/ha,0
same,"Plant response rating, Corn",corn (Zea mays); 62 g ai/ha,0
same,"Plant response rating, Corn",corn (Zea mays); 125 g ai/ha,0
same,"Plant response rating, Galium",[6]; 16 g ai/ha,90
same,"Plant response rating, Galium",[6]; 31 g ai/ha,0
same,"Plant response rating, Galium",[6]; 62 g ai/ha,0
same,"Plant response rating, Galium",[6]; 125 g ai/ha,40
same,"Plant response rating, Foxtail, Giant",[7]; 16 g ai/ha,10
same,"Plant response rating, Foxtail, Giant",[7]; 31 g ai/ha,55
same,"Plant response rating, Foxtail, Giant",[7]; 62 g ai/ha,90
same,"Plant response rating, Foxtail, Giant",[7]; 125 g ai/ha,100
same,"Plant response rating, Johnsongrass",[8]; 16 g ai/ha,0
same,"Plant response rating, Johnsongrass",[8]; 31 g ai/ha,0
same,"Plant response rating, Johnsongrass",[8]; 62 g ai/ha,5
same,"Plant response rating, Johnsongrass",[8]; 125 g ai/ha,15
same,"Plant response rating, Lambsquarters",[9]; 16 g ai/ha,30
same,"Plant response rating, Lambsquarters",[9]; 31 g ai/ha,20
same,"Plant response rating, Lambsquarters",[9]; 62 g ai/ha,45
same,"Plant response rating, Lambsquarters",[9]; 125 g ai/ha,60
same,"Plant response rating, Crabgrass, Large",[10]; 16 g ai/ha,5
same,"Plant response rating, Crabgrass, Large",[10]; 31 g ai/ha,70
same,"Plant response rating, Crabgrass, Large",[10]; 62 g ai/ha,98
same,"Plant response rating, Crabgrass, Large",[10]; 125 g ai/ha,100
same,"Plant response rating, Morningglory",[11]; 16 g ai/ha,0
same,"Plant response rating, Morningglory",[11]; 31 g ai/ha,0
same,"Plant response rating, Morningglory",[11]; 62 g ai/ha,0
same,"Plant response rating, Morningglory",[11]; 125 g ai/ha,15
same,"Plant response rating, Oilseed Rape",[12]; 16 g ai/ha,0
same,"Plant response rating, Oilseed Rape",[12]; 31 g ai/ha,0
same,"Plant response rating, Oilseed Rape",[12]; 62 g ai/ha,10
same,"Plant response rating, Oilseed Rape",[12]; 125 g ai/ha,60
same,"Plant response rating, Pigweed",[13]; 16 g ai/ha,25
same,"Plant response rating, Pigweed",[13]; 31 g ai/ha,65
same,"Plant response rating, Pigweed",[13]; 62 g ai/ha,75
same,"Plant response rating, Pigweed",[13]; 125 g ai/ha,100
same,"Plant response rating, Ragweed",[14]; 16 g ai/ha,0
same,"Plant response rating, Ragweed",[14]; 31 g ai/ha,0
same,"Plant response rating, Ragweed",[14]; 62 g ai/ha,10
same,"Plant response rating, Ragweed",[14]; 125 g ai/ha,0
same,"Plant response rating, Soybean",soybean (Glycine max); 16 g ai/ha,0
same,"Plant response rating, Soybean",soybean (Glycine max); 31 g ai/ha,10
same,"Plant response rating, Soybean",soybean (Glycine max); 62 g ai/ha,10
same,"Plant response rating, Velvetleaf",[15]; 16 g ai/ha,0
same,"Plant response rating, Velvetleaf",[15]; 31 g ai/ha,0
same,"Plant response rating, Velvetleaf",[15]; 62 g ai/ha,5
same,"Plant response rating, Velvetleaf",[15]; 125 g ai/ha,10
same,"Plant response rating, Waterhemp",[16]; 16 g ai/ha,20
same,"Plant response rating, Waterhemp",[16]; 31 g ai/ha,65
same,"Plant response rating, Waterhemp",[16]; 62 g ai/ha,100
same,"Plant response rating, Waterhemp",[16]; 125 g ai/ha,100
same,"Plant response rating, Wheat",[17]; 16 g ai/ha,0
same,"Plant response rating, Wheat",[17]; 31 g ai/ha,0
same,"Plant response rating, Wheat",[17]; 62 g ai/ha,0
same,"Plant response rating, Wheat",[17]; 125 g ai/ha,0
same,"Plant response rating, Nutsedge, Yellow",[18]; 16 g ai/ha,0
same,"Plant response rating, Nutsedge, Yellow",[18]; 31 g ai/ha,0
same,"Plant response rating, Nutsedge, Yellow",[18]; 62 g ai/ha,0
same,"Plant response rating, Nutsedge, Yellow",[18]; 125 g ai/ha,5
